Where two headings read alike, the source gives them in different places.
Columns and labels:
[1] = test system: LL29 cells (primary human fibroblasts derived from IPF patients), α-smooth muscle actin; test: Inhibition of fibrotic process: TGF-β1-treated primary human fibroblasts, αSMA staining; type: cell-based; settings: Homo sapiens, Fibroblast, 96 h, TGF-β1 20 ng/mL, 4 days, % cells positive for αSMA;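 further: controls were TGF-β1-stimulated wells with DMSO vehicle as the positive reference and cells given DMSO alone as the negative reference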
[2] = test system: SW480 colon carcinoma cells; test: Cell viability assay (CellTiter-Glo); type: cell-based, human; settings: Homo sapiens, 96 h, four days, CellTiter-Glo
Protocol: SW480 colon carcinoma cells were transduced with a lentiviral vector expressing luciferase with a human Sp5 promoter consisting of a sequence of eight TCF/LEF binding sites. SW480 cells stably expressing the Sp5-Luc reporter gene and a hygromycin resistance gene were selected by treatment with 150 μg/mL of hygromycin for 7 days. These stably transduced SW480 cells were expanded in cell culture and used for all further screening activities.
For the Cell Viability Assays, the cells were plated at 2,000 cells/well in 384-well plates with a DMEM medium containing 1% fetal bovine serum, and 1% Penicillin-Streptomycin and incubated for […] at 37° C. and 5% CO2. Eight replicates of DMSO-treated cells served as controls and cells treated with compound were performed in duplicate.
After incubation, 10 μL of CellTiter-Glo (Promega) was added to each well allowed to incubate for approximately 12 minutes. This reagent “results in cell lysis and generation of a luminescent signal proportional to the amount of ATP present. The amount of ATP is directly proportional to the number of cells present in culture, in agreement with previous reports. The CellTiter-Glo Assay generates a “glow-type” luminescent signal, produced by the luciferase reaction (Promega.com)”.

[3] = test system: Wnt activity (SW480 colon carcinoma cells stably expressing the Sp5-Luc reporter gene); test: Wnt activity screening assay (Sp5-Luc reporter gene assay); type: cell-based, human; settings: Homo sapiens; for EC50: 36 to 48 hours
Excerpt: The screening assay for Wnt activity is described as follows. Reporter cell lines can be generated by stably transducing cancer cell lines (e.g., colon cancer) or primary cells (e.g., IEC-6 intestinal cells) with a lentiviral construct that includes a Wnt-responsive promoter driving expression of the firefly luciferase gene.
SW480 colon carcinoma cells were transduced with a lentiviral vector expressing luciferase with a human Sp5 promoter consisting of a sequence of eight TCF/LEF binding sites. SW480 cells stably expressing the Sp5-Luc reporter gene and a hygromycin resistance gene were selected by treatment with 150 μg/mL of hygromycin for 7 days. These stably transduced SW480 cells were expanded in cell culture and used for all further screening activities. […] For Sp5-Luc reporter gene assays, the cells were plated at 4,000 cells/well in 384-well plates with a DMEM medium containing 1% fetal bovine serum, and 1% Penicillin-Streptomycin and incubated for 36 to 48 hours at 37° C. and 5% CO2. Following incubation, 15 μl of BriteLite Plus luminescence reagent (Perkin Elmer) was added to each well of the 384-well assay plates. The plates were placed on an orbital shaker for 2 min and then luminescence was quantified using the Envision (Perkin Elmer) plate reader. Readings were normalized to DMSO only treated cells, and normalized activities were utilized for EC50 calculations using the dose-response log (inhibitor) vs. response-variable slope (four parameters) nonlinear regression feature available in GraphPad Prism 5.0 (or Dotmatics).

[4] = test system: IL-6 in human peripheral blood mononuclear cells (huPBMCs); test: IL-6 inhibition in LPS-stimulated human peripheral blood mononuclear cells (HTRF); type: cell-based; settings: Homo sapiens, PBMC; for EC50: LPS 50 ng/mL, 22 hours, IL-6 HTRF
Protocol: Human Peripheral Blood Mononuclear Cells:
Fresh Normal PB MNC (Catalog # PB001, AllCells, Alameda, Calif.) were shipped overnight at 4° C. and resuspended in Roswell Park Memorial Institute (RPMI) 1640 Medium, with GlutaMAX Supplement (Catalog #61870127, ThermoFisher Scientific, Waltham, Mass.) supplemented with 1% Penicillin-Streptomycin (Catalog #15140163, ThermoFisher Scientific, Waltham, Mass.) and 1% fetal bovine serum (FBS) (Catalog #16140089, ThermoFisher Scientific, Waltham, Mass.) assay media.
Fresh normal human peripheral blood mononuclear cells (huPBMCs) were resuspended in 1% FBS-RPMI assay media with 1% Penicillin-Streptomycin 1% to a cell concentration of 1×10e6 cells/mL. […] 50 ng/mL of Lipopolysaccharides from Escherichia coli 0111:B4 (Catalog # L5293-2ML, Sigma-Aldrich, St. Louis, Mo.) was added after 2 hours and cells were incubated for another 22 hours at 37° C.-5% CO2. After 22 hour incubation, a mixture of anti-IL6 XL665 and anti-IL-6 Cryptate diluted in reconstitution buffer (Catalog #62IL6PEC, Cisbio Inc., Bedford, Mass.) was added to each well. Following incubation for 3 hours at room temperature, Homogeneous Time-Resolved Fluorescence (HTRF) was measured using the Envision (Perkin Elmer, Shelton, Conn.) at 665 nm and […]. The ratio of fluorescence at 665 nm to 620 nm was used as a readout for IL-6 quantification. All samples were processed in duplicate. Readings were normalized to DMSO treated cells and normalized activities were utilized for EC50 calculations. EC50 was determined using software generated by Dotmatics Limited (Windhill Bishops Stortford Herts, UK) using the Levenberg-Marquardt 4 parameter fitting procedure with finite different gradients.

[5] = target: recombinant DYRK1A kinase (Homo sapiens (Human), UniProt Q13627); test: DYRK1A kinase assay (Ser/Thr 18 peptide Z-lyte, FRET)
recombinant GSK3β kinase = recombinant GSK3β kinase (Homo sapiens (Human), UniProt P49841); test: GSK3β kinase assay (Ser/Thr 09 peptide Z-lyte, FRET); type: biochemical;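 further: FRET read-out as coumarin over fluorescein emission ratio, compounds incubated one hour at room temperature, IC50 from dose-response curve fit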
[6] = DYRK1A kinase, head says EC50, method says IC50, ATP 30 μM
[7] = GSK3β kinase, head says EC50, method says IC50, ATP 46 μM

recombinant GSK3β kinase, sequence (P49841 whole entry): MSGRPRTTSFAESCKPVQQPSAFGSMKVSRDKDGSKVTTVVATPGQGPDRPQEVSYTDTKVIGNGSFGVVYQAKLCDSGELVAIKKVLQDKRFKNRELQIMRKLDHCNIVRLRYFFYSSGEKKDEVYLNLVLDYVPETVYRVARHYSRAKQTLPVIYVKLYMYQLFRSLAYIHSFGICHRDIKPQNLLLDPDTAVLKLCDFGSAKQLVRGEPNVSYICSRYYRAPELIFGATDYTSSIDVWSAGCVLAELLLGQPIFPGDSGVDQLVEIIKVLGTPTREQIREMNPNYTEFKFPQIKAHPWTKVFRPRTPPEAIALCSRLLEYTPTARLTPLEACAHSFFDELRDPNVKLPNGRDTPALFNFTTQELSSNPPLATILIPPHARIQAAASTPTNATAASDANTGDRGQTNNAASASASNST

| EC50 [2] [nM] | EC50 [3] [nM] | EC50 [4] [nM] | EC50 [5, 6] [nM] | EC50 (recombinant GSK3β kinase; [7]) [nM] | EC50 [5] [nM] | EC50 (recombinant GSK3β kinase) [nM] | SMILES | EC50 [1] [nM] | inhibition at 10 µM ([3]; read-out: percent inhibition at 10 μM (given for EC50 >10 μM), 10 μM) [%] | inhibition at 10 µM ([4]; read-out: percent inhibition at 10 μM (given for EC50 >10 μM), LPS, IL-6, 10 μM) [%] |
| --- | --- | --- | --- | --- | --- | --- | --- | --- | --- | --- |
| 7 | 9 | 1060 | 8 | 1830 |  |  | O=C(Nc1cc2cc(-c3cncc(N[C@H]4CCNC[C@@H]4F)n3)ccc2cn1)c1ccc(F)cc1 [Compound 112, 4-Fluoro-N-(6-(6-(((3S,4S)-3-fluoropiperidin-4-yl)amino)pyrazin-2-yl)isoquinolin-3-yl)benzamide] | 975 |  |  |
| 74 | 27 | 1560 | 5 | > 10000 |  |  | CN1CCC(n2cc(C(=O)Nc3cc4cc(-c5cnc6cc[nH]c6c5)ccc4cn3)cn2)CC1 [Compound 127, N-(6-(1H-Pyrrolo[3,2-b]pyridin-6-yl)isoquinolin-3-yl)-1-(1-methylpiperidin-4-yl)-1H-pyrazole-4-carboxamide] | 272 |  |  |
| 31 | 13 | 678 | 4 | 9070 |  |  | CN1CCC(n2cc(C(=O)Nc3cc4cc(-c5cncc6[nH]ccc56)ccc4cn3)cn2)CC1 [Compound 128, N-(6-(1H-Pyrrolo[2,3-c]pyridin-4-yl)isoquinolin-3-yl)-1-(1-methylpiperidin-4-yl)-1H-pyrazole-4-carboxamide] | 102 |  |  |
| 1160 | 1380 | 1010 | 10 | > 10000 |  |  | O=C(Nc1cc2cc(-c3cncc(OC4CCNCC4)c3)ccc2cn1)c1ccc(F)cc1 [Compound 35, 4-Fluoro-N-(6-(5-(piperidin-4-yloxy)pyridin-3-yl)isoquinolin-3-yl) benzamide] | 2800 |  |  |
| 8420 | 381 | 369 | 1 | 50 |  |  | O=C(Nc1cc2cc(-c3cncc(NC4CCNCC4)n3)ccc2cn1)C1CC(F)(F)C1 [Compound 106, 3,3-Difluoro-N-(6-(6-(piperidin-4-ylamino)pyrazin-2-yl)isoquinolin-3-yl) cyclobutane-1-carboxamide] | 27 |  |  |
| 43 | 18 | 125 | 4 | 748 |  |  | CN1CC=C(c2cc(C(=O)Nc3cc4cc(-c5cncc(NC(C)(C)C)n5)ccc4cn3)ccn2)CC1 [Compound 99, N-(6-(6-(tert-Butylamino)pyrazin-2-yl)isoquinolin-3-yl)-1′-methyl-1′,2′,3′,6′-tetrahydro-[2,4′-bipyridine]-4-carboxamide] | 31 |  |  |
| 2910 | 1040 | 1910 | 6 | > 10000 |  |  | CCN(CC)c1cncc(-c2ccc3cnc(NC(=O)c4ccnc(N5CCN(C)CC5)c4)cc3c2)n1 [Compound 121, N-(6-(6-(Diethylamino)pyrazin-2-yl)isoquinolin-3-yl)-2-(4-methylpiperazin-1-yl)isonicotinamide] | 710 |  |  |
| 9520 | > 10000 | > 10000 | 11 | > 10000 |  |  | CN1CCN(c2cc(C(=O)Nc3cc4cc(-c5cncc(F)c5)ccc4cn3)ccn2)CC1 [Compound 24, N-(6-(5-Fluoropyridin-3-yl)isoquinolin-3-yl)-2-(4-methylpiperazin-1-yl) isonicotinamide] | 2770 | 20.2 | 2.8 |
| 3320 | 2770 | 8890 | 7 | > 10000 |  |  | CN1CCN(c2cc(C(=O)Nc3cc4cc(-c5cncc(N(C)C)n5)ccc4cn3)ccn2)CC1 [Compound 120, N-(6-(6-(Dimethylamino)pyrazin-2-yl)isoquinolin-3-yl)-2-(4-methylpiperazin-1-yl)isonicotinamide] | 620 |  |  |
| 61 | 42 | 260 | 4 | > 10000 |  |  | CC(C)N1CCN(c2cc(C(=O)Nc3cc4cc(-c5cncc(NC(C)(C)C)n5)ccc4cn3)ccn2)CC1 [Compound 101, N-(6-(6-(tert-Butylamino)pyrazin-2-yl)isoquinolin-3-yl)-2-(4-isopropylpiperazin-1-yl)isonicotinamide] | 46 |  |  |
| 5880 | 4010 | 9000 | 306 | > 10000 |  |  | O=C(Nc1cc2cc(-c3cncc(F)c3)ccc2cn1)c1coc(C2CCNCC2)n1 [Compound 141, N-(6-(5-Fluoropyridin-3-yl)isoquinolin-3-yl)-2-(piperidin-4-yl)oxazole-4-carboxamide] | 1510 |  |  |
| 465 | 139 | 463 | 1 | 10 |  |  | CC(C)Nc1cncc(-c2ccc3cnc(NC(=O)C4CCN(C(C)C)CC4)cc3c2)n1 [Compound 90, 1-isopropyl-N-(6-(6-(isopropylamino)pyrazin-2-yl)isoquinolin-3-yl)piperidine-4-carboxamide] | 37 |  |  |
| 865 | 698 | 1130 |  |  | 9 | > 10000 | O=C(Nc1cc2cc(-c3cncc(NC4CCNCC4)c3)ccc2cn1)c1ccc(F)cc1 [Compound 45, 4-fluoro-N-(6-(5-(piperidin-4-ylamino)pyridin-3-yl)isoquinolin-3-yl) benzamide] | 622 |  |  |
| 119 | 63 | 1170 | 1 | 4390 |  |  | O=C(Nc1cc2cc(-c3cncc(NCC4(F)CNC4)n3)ccc2cn1)c1ccc(F)cc1 [Compound 104, 4-fluoro-N-(6-(6-(((3-Fluoroazetidin-3-yl)methyl)amino)pyrazin-2-yl)isoquinolin-3-yl)benzamide] | 284 |  |  |
| 222 | 7 | 184 | 2 | 6270 |  |  | CC(C)Nc1cncc(-c2ccc3cnc(NC(=O)c4ccnc(N5CCN(C)CC5)c4)cc3c2)n1 [Compound 97, N-(6-(6-(Isopropylamino)pyrazin-2-yl)isoquinolin-3-yl)-2-(4-methylpiperazin-1-yl)isonicotinamide] | 311 |  |  |
